# Results reported in patent publication US11835522B2, “Sensors for detecting and imaging of cancer metastasis” (Massachusetts Institute of Technology, priority 2019, dated 2023).
# Assays:
# CRC lung metastases = assay: 5-FU treatment monitored with PRISM, CRC lung metastasis model; assay type: in vivo, mice
# Excerpt: (§1) After validation of the efficacy of tailored PRISM nanoparticles, these sensors were applied to study how proteolytic activities correlate with changes in the progression of disease over time and in response to drug treatment. In addition, molecular imaging was safely performed for any lesion for multiple times, providing information related to regional heterogeneity in a given tumor. To evaluate PRISM in monitoring treatment responses, mice were grouped into two categories (n=5 each) to allow monitoring the effect of standard chemotherapy 5-FU treatment: one group received drug (15 mg/kg) by i.p. injection (daily injection for 4 days and once every other day till end of study); and the second group received vehicle as control. To monitor therapeutic responses in treating metastases, PRISM was intravenously injected in each group of mice. After 1 hr of sensor injection, urinary reporter level was assayed to track local proteolytic activity, reflecting tumor invasion capacity. At 6 hrs post-injection, mice were scanned using a small animal PET/CT imager for longitudinal assessment of the tumor progression. […] Real-time images were analyzed and standard uptake value of radioactive reporters were quantified using VivoQuant software.
# To monitor therapeutic responses when metastases in the CRC lung metastasis model were treated, PRISM was again intravenously injected in two group of mice on a weekly basis. One hour following sensor injection, urinary reporter level was read to track the local proteolytic activity. […] 6 hours after sensor injection, PET/CT were applied to monitor tumor growth or regression, which provides a longitudinal, noninvasive assessment of the efficacy of anti-tumor drug treatment. […] Consistently, the relative lung/liver ratio of PET/CT signal in the cohort that received no treatment was over 3 times higher than that of the cohort treated with chemotherapy (n=5) (FIG. 6G).
# CRC liver metastases = assay: 5-FU treatment monitored with PRISM, CRC liver metastasis model; assay type: in vivo, mice; conditions: 5-FU 15 mg/kg i.p.
# Excerpt: as §1
smiles,measurement,setting,value
O=c1[nH]cc(F)c(=O)[nH]1 [5-FU],urinary reporter level vs untreated control group,"CRC lung metastases; 5-FU treated mice, urine one hour after PRISM injection",Significantly reduced urinary reporter levels
same,tumor growth vs untreated controls,CRC lung metastases; PET/CT 6 hours after sensor injection,slower tumor growth
same,"relative lung/liver ratio of PET/CT signal, untreated cohort relative to 5-FU treated cohort","CRC lung metastases; n=5, FIG. 6G",over 3 times
same,tumor progression / tumor growth vs untreated,"CRC liver metastases; started two weeks after tumor inoculation, PET/CT",significantly inhibited tumor progression
same,urinary reporter level vs non-treated cohort,CRC liver metastases; urine 1 hr after PRISM injection,decreased urinary reporter level
